US20210353749A1, “GUANABENZ AS AN ADJUVANT FOR IMMUNOTHERAPY” (UNIVERSITÉ CATHOLIQUE DE LOUVAIN, priority 2018, published 2021)

Assays:
Mouse NK cells = test: In vitro NK cell function (CD107a degranulation); format: cell-based; settings: guanabenz 20 μM, 16 hours, RMA-S target cells; FIG. 10
Procedure: Mouse NK cells: murine NK cells were isolated from mouse splenocytes using anti-CD49b magnetic beads. Murine NK cells were isolated from mouse splenocytes using anti-CD49b magnetic beads and were activated in vitro by co-incubation with irradiated RMA-S cells. 4 days after activation, they were collected and plated at 50,000 cells per well in a 96 U plate with 20 μM of guanabenz and incubated at 37° C. overnight prior to their use in the assay on the next day. On the day of the assay, the culture supernatant was removed from the cells and the cells were washed once with complete medium to remove the drug. The target cells (RMA-S cells) were added to the wells at a ratio of 1:1. Control wells containing either only NK cells or target cells were also included for each plate. CD107a-APC was added to each well at the same time as addition of the target cells. The plate was then incubated at 37° C. for 90 minutes. At the end of the incubation period the cells were harvested and washed once with PBS. They were stained with anti-mouse CD49b-PE antibody for 15 minutes. The cells were then washed and resuspended in PBS and analyzed using FACS Fortessa flow cytometer.

[1] = test system: IFNγ producing CD8+ T cells; test: Immunization with ovalbumin; format: in vivo, C57BL/6J mice; settings: 100 μg (5 mg/kg) guanabenz with OVA/Alhydrogel, vs non-immunized control
Procedure: Immunization with Ovalbumin: C57BL/6J mice were immunized once by intraperitoneal (i.p.) injection of 200 ug of OVA protein adsorbed onto Alhydrogel adjuvant 2% (Sigma) These mice were administered 100 μg (5 mg/kg) of guanabenz 2 hours before the immunization and daily after the immunization. […] Intracellular IFNγ staining: one week after the immunization, the blood and spleen of each mouse were collected. Cells derived from the spleen and blood of each immunized mouse were cultured for 1 hour in 96 well U bottomed plates at 37° C. in the presence of 10 μM OVA peptide. Brefeldin A (10 μg/mL) was added to each well and the cells were incubated for an additional 4 hours. The immune response of each mouse was evaluated by measuring the amount of IFNγ producing CD8^+ T cells using antibodies against CD8 and IFNγ. Samples were then examined by FACS Fortessa flow cytometry.

TiRP tumor [2] = test: TiRP melanoma model, drug alone; format: in vivo, mouse; settings: 5 mg/kg i.p. daily from tumor size around 400 mm^3 (day 0) to day 12, vs vehicle; FIG. 3
Source text: TiRP mice: TiRP mice have been created by crossing Ink4a/Arf^flox/flox mice with mice carrying a transgenic construct controlled by the tyrosinase promoter and driving the expression of H-Ras^12V and Trap1a which encodes a MAGE-type tumor antigen P1A; the promoter is separated from the coding region by a stop cassette made of a floxed self-deleting CreER (Huijbers et al., 2006, Cancer Res 66, 3278-3286). Those mice were backcrossed to a B10.D2 background and bred to homozygosity. TCRP1A mice heterozygous for the H-2Ld/P1A35-43-specific TCR transgene were kept on the B10.D2; Rag1^−/− background (Shanker et al., 2004, J Immunol 172, 5069-5077). All mice used in this study were produced under specific pathogen free (SPF) conditions at the animal facility of the Ludwig Institute for Cancer Research. All the rules concerning animal welfare have been respected according to the 2010/63/EU Directive. […]
A fresh solution of 40H-Tamoxifen was prepared by dissolving 40H-Tamoxifen (Imaginechem) in 100% ethanol and mineral oil (ratio 1:9) followed by 30-min sonication, and injected subcutaneously (2 mg/200 μL per mouse) in the neck area of gender-matched 7 weeks old TiRP mice. Tumor appearance was monitored daily and tumors were measured three times/week. Tumor volume (in mm^3) was calculated by the following formula: Volume=width^2×length/2. […]

TiRP tumor [3] = test: Immunodeficient Rag1-/- TiRP+/+ mice, TiRP tumor; format: in vivo, mouse; settings: Rag1-/- TiRP+/+ mice lacking T cells, 5 mg/kg i.p. daily from about 500 mm^3 (day 0) to day 15, vs control; FIG. 4
Procedure: FIG. 4 is a graph showing the tumor size in the immunodeficient Rag1^-/- TiRP^+/+ mice that were injected with 4-OH-Tamoxifen to induce a TiRP tumor. When the tumor reached 500 mm^3 (day 0), the tumor bearing mice were randomized and received daily injections of guanabenz (5 mg/kg, i.p.) or vehicle (PBS, i.p.) until the day of sacrifice (day 15). A fresh solution of […]-Tamoxifen was prepared by dissolving […]-Tamoxifen ([…]) in 100% ethanol and mineral oil (ratio 1:9) followed by 30-min sonication, and injected subcutaneously (2 mg/200 μL per mouse) in the neck area of gender-matched 7 weeks old TiRP mice. Tumor appearance was monitored daily and tumors were measured three times/week. Tumor volume (in mm^3) was calculated by the following formula: Volume=width^2×length/2. Tumor-bearing TiRP mice were randomized based on the tumor size when average volume was 400 mm^3, 500 mm^3 or 1000 mm^3 as indicated. T cells were incubated with guanabenz (10, 20, or 40 μM) for 16 h to 24 h as indicated. Mice received a daily intra-peritoneal injection of guanabenz (5 mg/kg) or vehicle (PBS) from the day of randomization (and the day of ACT when applicable) until the day of sacrifice. As a control, tumors were induced in immunodeficient TiRP mice lacking T cells due to the deletion of the Rag1 gene (Rag 1^-/- TiRP^+/+ mice). […]

Compound: NC(N)=N/N=C/c1c(Cl)cccc1Cl [guanabenz, 2-[(E)-(2,6-dichlorophenyl)methylideneamino]guanidine]
- NK cell degranulation (FACS detection of CD107a) (Mouse NK cells): significantly increased
- percentage of IFNγ producing CD8+ T cells among total CD8+ T, blood ([1]; blood cells with 10 μM OVA peptide, FIG. 8A): significant increase
- percentage of IFNγ producing CD8+ T cells among total CD8+ T, spleen ([1]; spleen cells with 10 μM OVA peptide, FIG. 8B): significant increase
- TiRP tumor growth (TiRP tumor [2]): inhibitory effect
- TiRP tumor growth (TiRP tumor [3]): did not induce a decrease
